What all share (type): in vivo
For experiment [1], the system named is mice. Description: Forced swimming test (FST). The note with it: 30 min after dosing. On the procedure: The “Forced swimming test (FST)” for antidepressant activity was also carried out. The procedure employed in the FST for antidepressant is as follows. The compounds to be tested were dissolved in 30% PEG400 and administered ip and po into animals. 30 min later, the immobility time during post 4 minutes of 6 minutes experiment time was measured.

The test system of experiment [2] is mice. Description: Maximal ElectroShock (MES)-induced tonic seizure test. The conditions noted are these: Mus musculus; for ED50: read-out: Mice MES ED50 (mpk/peak time); for responders at 30 mg/kg: read-out: Mice MES Protection % (mpk/peak time). On the procedure:
The “Maximal ElectroShock (MES)” test is a well-established pharmacological screening method for anticonvulsants against tonic-clonic seizures. The procedure employed in the MES test for anticonvulsants is as follows. The compounds to be tested were dissolved in 30% PEG400 and administered ip and po into animals. After the designated number of hours, maximal electroshock (50 mA, 60 Hz, 0.2 sec) was applied into animals via corneal electrodes using IITC Life Science model 11A Shocker. […] Median efficacy dose (ED50) levels were determined using three different dose levels with at least 8 mice in each group.
Background: Protection in the maximal electroshock model is a classic sign of anticonvulsant action.

Experiment [3] deals with mice. Description: Pentylenetetrazol (PTZ)-induced clonic seizure test. The note with it: Mus musculus; for responders at 30 mg/kg: read-out: Mice PTZ Protection % (mpk/peak time). On the procedure:
The “Pentylenetetrazol (PTZ)” test for anticonvulsant and antianxiety activity was also carried out.
The procedure employed in the PTZ test is as follows. The compounds to be tested were dissolved in 30% PEG400 and administered ip and po into animals. After the designated number of hours, each animal was injected subcutaneously with 100 mg/kg of PTZ (CD97 dose) and observed for up to 30 minutes for the presence or absence of clonic spasms over 5 seconds. Median efficacy dose (ED50) levels were determined using three different dose levels with 8 mice in each group.

Where [4] appears, read: 3 mice, 30 mpk, 0.5, 1, 2, 4 hr.

In the case of `NC(=O)OC(Cn1ncnn1)c1ccc(Cl)cc1` (stereo not shown) [Example 5, Carbamic acid 1-(4-chloro-phenyl)-2-tetrazol-2-yl-ethyl ester], the “Mice FST Reduction of immobility %” value with mice [1] (dose not given) amounted to 71.7%. The ED50 in the experiment with mice [2] (0.5 h) was 18.4 mg/kg.
The like results for `NC(=O)OC(Cn1nccn1)c1ccc(Cl)cc1` (stereo not shown) [Example 10, Carbamic acid 1-(4-chloro-phenyl)-2-[1,2,3]triazol-2-yl-ethyl ester] were, in that order, 45.1% and 21.3 mg/kg.
As to `NC(=O)OC(Cn1nccn1)c1ccccc1C(F)(F)F` (stereo not shown) [Example 39, Carbamic acid 2-[1,2,3]triazol-2-yl-1-(2-trifluoromethyl-phenyl)-ethyl ester], the ED50 with mice [2] (0.5 h) was found to be 12.5 mg/kg.
Turning to `NC(=O)O[C@@H](Cn1ncnn1)c1ccc(Cl)cc1` [Example 42, Carbamic acid (R)-1-(4-chloro-phenyl)-2-tetrazol-2-yl-ethyl ester], in the experiment with mice [1] (dose not given), the “Mice FST Reduction of immobility %” value is 44.1%. The ED50 with mice [2] (0.5 h) was determined as 18.2 mg/kg.
The like results for `NC(=O)O[C@@H](Cn1nccn1)c1ccc(Cl)c(Cl)c1` [Example 91, Carbamic acid (R)-1-(3,4-dichloro-phenyl)-2-[1,2,3]triazol-2-yl-ethyl ester] were, in that order, 94.0% and 16 mg/kg.
With `NC(=O)OC(Cc1ccccc1)Cn1ncnn1` (stereo not shown) [Example 116, Carbamic acid 2-phenyl-1-tetrazol-2-ylmethyl-ethyl ester], in the experiment on mice [1] (dose not given), the “Mice FST Reduction of immobility %” value worked out at 30.0%. The responders at 30 mg/kg stood at 100% in the experiment with mice [2] (1 h) and 33.3% in the experiment on mice [3] (2 h).
Turning to `O=C(OC(Cn1ncnn1)c1ccccc1Cl)N1CCC(Cc2ccc(Cl)c(Cl)c2)CC1` (stereo not shown) [Example 175, 4-(3,4-Dichloro-benzyl)-piperidine-1-carboxylic acid 1-(2-chloro-phenyl)-2-tetrazol-2-yl-ethyl ester], in the experiment with mice [1], the “Mice FST Reduction of immobility %” value is listed as “N.S”. For the same compound, in the experiment on mice [2] (0.5 h), the ED50 came out at 20.2 mg/kg. Also, in the experiment on mice [3] (4 h), the responders at 30 mg/kg worked out at 66.7%.
Regarding `O=C(OC(Cn1ncnn1)c1ccccc1Cl)N1CCC(CCc2ccccc2)C1` (stereo not shown) [Example 181, 3-Phenethyl-pyrrolidine-1-carboxylic acid 1-(2-chloro-phenyl)-2-tetrazol-2-yl-ethyl ester], the “Mice FST Reduction of immobility %” value in the experiment with mice [1] (dose not given) came to 30.6%. The ED50 in the experiment with mice [2] (0.5 h) was determined as 12.1 mg/kg. In addition, the responders at 30 mg/kg in the experiment on mice [3] (4 h) is 33.3%.
`O=C(OC(Cn1ncnn1)c1cc(Cl)ccc1Cl)N1CCC(Cc2ccc(Cl)c(Cl)c2)CC1` (stereo not shown) [Example 191, 4-(3,4-Dichloro-benzyl)-piperidine-1-carboxylic acid 1-(2,5-dichloro-phenyl)-2-tetrazol-2-yl-ethyl ester]: the “Mice FST Reduction of immobility %” value in the experiment on mice [1] (dose not given) was determined as 50.6%. Also, in the experiment with mice [2] (4 h), the responders at 30 mg/kg came to 66.7%. Moreover, the ED50 in the experiment with mice [3] (sc, read-out: Mice PTZ ED50 (mpk/peak time)) was over 30 mg/kg.
Consider `O=C(OC(Cn1ncnn1)c1ccc(Cl)cc1Cl)N1CCC(Cc2ccc(Cl)c(Cl)c2)CC1` (stereo not shown) [Example 194, 4-(3,4-Dichloro-benzyl)-piperidine-1-carboxylic acid 1-(2,4-dichloro-phenyl)-2-tetrazol-2-yl-ethyl ester], for which the “Mice FST Reduction of immobility %” value in the experiment on mice [1] (dose not given) was 53.4%. In the experiment on mice [2] (0.5 h), the ED50 was 11.9 mg/kg. Moreover, the responders at 30 mg/kg in the experiment with mice [3] (2 h) was 33.3%.
Take `O=C(OC(Cn1ncnn1)c1ccc(Cl)c(Cl)c1)N1CCC(Cc2ccc(Cl)c(Cl)c2)CC1` (stereo not shown) [Example 195, 4-(3,4-Dichloro-benzyl)-piperidine-1-carboxylic acid 1-(3,4-dichloro-phenyl)-2-tetrazol-2-yl-ethyl ester]: the “Mice FST Reduction of immobility %” value in the experiment on mice [1] (dose not given) is on record as 31.9%. Moreover, in the experiment with mice [2] (mice, peak time 0.5 hr), the ED50 worked out at 15.3 mg/kg. Moreover, the responders at 30 mg/kg in the experiment with mice [3] (3 mice, 30 mpk, 0.5, 1 hr) turned out to be 33.3%.
As for `O=C(OC(Cn1ncnn1)c1ccccc1Cl)N1CCC(Cc2ccc(Cl)cc2)C1` (stereo not shown) [Example 196, 3-(4-Chloro-benzyl)-pyrrolidine-1-carboxylic acid 1-(2-chloro-phenyl)-2-tetrazol-2-yl-ethyl ester], in the experiment with mice [1], the “Mice FST Reduction of immobility %” value is recorded as “N.S”. Besides, in the experiment on mice [2] (0.5 h), the ED50 worked out at 15.3 mg/kg. In addition, in the experiment with mice [3] (4 h), the responders at 30 mg/kg stood at 33.3%.
As for `O=C(OC(Cn1ncnn1)c1ccccc1Cl)N1CCC(Cc2cc(C(F)(F)F)cc(C(F)(F)F)c2)CC1` (stereo not shown) [Example 197, 4-(3,5-Bis-trifluoromethyl-benzyl)-piperidine-1-carboxylic acid 1-(2-chloro-phenyl)-2-tetrazol-2-yl-ethyl ester], the “Mice FST Reduction of immobility %” value with mice [1] is reported as “N.S”. Moreover, the ED50 in the experiment on mice [2] (0.5 h) is 6.3 mg/kg. Further, the responders at 30 mg/kg in the experiment with mice [3] (4 h) was 100%.
Turning to `O=C(OC(Cn1nccn1)c1ccccc1Cl)N1CCC(Cc2ccc(Cl)c(Cl)c2)CC1` (stereo not shown) [Example 200, 4-(3,4-Dichloro-benzyl)-piperidine-1-carboxylic acid 1-(2-chloro-phenyl)-2-[1,2,3]triazol-2-yl-ethyl ester], the “Mice FST Reduction of immobility %” value in the experiment with mice [1] (dose not given) worked out at 25.9%. For the same compound, the responders at 30 mg/kg in the experiment on mice [2] (3 mice, 30 mpk, 0.5, 4 hr) turned out to be 100%.
Take `O=C(OC(Cn1cnnn1)c1ccccc1Cl)N1CCC(Cc2ccc(Cl)c(Cl)c2)CC1` (stereo not shown) [Example 201, 4-(3,4-Dichloro-benzyl)-piperidine-1-carboxylic acid 1-(2-chloro-phenyl)-2-tetrazol-1-yl-ethyl ester]: the “Mice FST Reduction of immobility %” value with mice [1] (dose not given) is listed as 54.0%. Further, the responders at 30 mg/kg in the experiment with mice [2] (3 mice, 30 mpk, 1, 2, 4 hr) is 100%.
For the compound `O=C(OC(Cn1ncnn1)c1cc(Cl)ccc1Cl)N1CCC(CCc2ccccc2)C1` (stereo not shown) [Example 202, 3-Phenethyl-pyrrolidine-1-carboxylic acid 1-(2,5-dichloro-phenyl)-2-tetrazol-2-yl-ethyl ester], the “Mice FST Reduction of immobility %” value in the experiment with mice [1] (dose not given) is 81.2%. The ED50 with mice [2] (mice, peak time 0.5 hr) came out at 11.4 mg/kg. For the same compound, the responders at 30 mg/kg with mice [3] (3 mice, 30 mpk, 1, 4 hr) is 33.3%.
`O=C(OC(Cn1ncnn1)c1ccc(Cl)cc1Cl)N1CCC(CCc2ccccc2)C1` (stereo not shown) [Example 203, 3-Phenethyl-pyrrolidine-1-carboxylic acid 1-(2,4-dichloro-phenyl)-2-tetrazol-2-yl-ethyl ester]: the “Mice FST Reduction of immobility %” value in the experiment on mice [1] (dose not given) was determined as 44.0%. The responders at 30 mg/kg with mice [2] (setting [4]) is 100%.
In the case of `O=C(OC(Cn1ncnn1)c1ccc(Cl)c(Cl)c1)N1CCC(CCc2ccccc2)C1` (stereo not shown) [Example 204, 3-Phenethyl-pyrrolidine-1-carboxylic acid 1-(3,4-dichloro-phenyl)-2-tetrazol-2-yl-ethyl ester], the “Mice FST Reduction of immobility %” value in the experiment with mice [1] (dose not given) amounted to 51.2%. In addition, in the experiment on mice [2] (3 mice, 30 mpk, 0.5, 1, 2 hr), the responders at 30 mg/kg was determined as 100%.
Regarding `O=C(OC(COc1ccc(Cl)cc1Cl)Cn1nccn1)N1CCC(CCc2ccccc2)C1` (stereo not shown) [Example 206, 3-Phenethyl-pyrrolidine-1-carboxylic acid 2-(2,4-dichloro-phenoxy)-1-[1,2,3]triazol-2-ylmethyl-ethyl ester], the “Mice FST Reduction of immobility %” value in the experiment on mice [1] (dose not given) is 51.4%. The responders at 30 mg/kg in the experiment on mice [2] (setting [4]) amounted to 100%; in the experiment with mice [3] (3 mice, 30 mpk, 2, 4 hr) it was 66.7%.
Take `O=C(OC(COc1ccc(Cl)c(Cl)c1)Cn1nccn1)N1CCC(CCc2ccccc2)C1` (stereo not shown) [Example 207, 3-Phenethyl-pyrrolidine-1-carboxylic acid 2-(3,4-dichloro-phenoxy)-1-[1,2,3]triazol-2-ylmethyl-ethyl ester]: the “Mice FST Reduction of immobility %” value in the experiment on mice [1] (dose not given) is given as 43.4%. Also, the responders at 30 mg/kg with mice [2] (3 mice, 30 mpk, 0.5, 1, 4 hr) was determined as 100%.
Consider `O=C(OC(COc1cc(Cl)ccc1Cl)Cn1ncnn1)N1CCC(CCc2ccccc2)C1` (stereo not shown) [Example 208, 3-Phenethyl-pyrrolidine-1-carboxylic acid 2-(2,5-dichloro-phenoxy)-1-tetrazol-2-ylmethyl-ethyl ester], for which the “Mice FST Reduction of immobility %” value in the experiment with mice [1] (dose not given) is on record as 48.2%. The responders at 30 mg/kg in the experiment with mice [2] (3 mice, 30 mpk, 0.5, 1, 4 hr) was determined as 100%; in the experiment on mice [3] (3 mice, 30 mpk, 4 hr) it was 33.3%.

The record behind these values is patent publication US7598279B2, “Neurotherapeutic azole compounds” (SK Holdings Co., Ltd., priority 2005, dated 2009).
